Data: paper PMC3823830 (Anesthesiology, 2013)
“Also recorded” adds a separate entry of the source. Like-named read-outs stand apart in the source and are kept apart here.

Legend:
P-gp [1] = details: bovine brain capillary cell P-gp-mediated transport; cited from earlier work
P-gp [2] = details: rats; cited from earlier work
[3] = Compartmental pharmacokinetic modeling of morphine and morphine glucuronides; format: in vivo, human; details: for Delay time (appearance of the metabolite in plasma): set at 0.01 h for M-3-G when not estimable; for VSS of morphine glucuronide: fixed at 0.2 × body mass (kg); for Vd / clearance: both, human, plasma, intravenous; for VC (central volume): constrained to be the same in both sessions
[4] = cited from earlier work
clinical = details: both, human, plasma, iv, 0.1 mg/kg
healthy volunteers [5] = assay: Pharmacokinetic-pharmacodynamic effect-site modeling of miosis; details: for Predicted maximum biophase concentration: model-predicted
healthy volunteers [6] = details: morphine 0.1 mg/kg
healthy volunteers [7] = details: average; cyclosporine did not change this delay
P-gp [8] = details: humans; cited from earlier work
human P-gp = details: cited from earlier work
P-gp [9] = details: mouse, in vivo; cited from earlier work
P-gp [10] = details: cited from earlier work
[11] = tested on: mdr1a (murine MDR1 homologue); details: cited from earlier work
P-gp [12] = details: P-gp-overexpressing cells; cited from earlier work
[13] = with cyclosporine, median (range)

COc1cc2c(cc1OC)CN(CCc1ccc(NC(=O)c3cccc4c(=O)c5cccc(OC)c5[nH]c34)cc1)CC2 [GF120918]
Effect on basolateral to apical flux of morphine (P-gp [1]): abolished | Increase in morphine antinociception (P-gp [2]): approximately 3 fold

CN1CC[C@]23c4c5ccc(O[C@@H]6O[C@H](C(=O)O)[C@@H](O)[C@H](O)[C@H]6O)c4O[C@H]2[C@@H](O)C=C[C@H]3[C@H]1C5 [Morphine-3-glucuronide, morphine-3-glucuronide]
ClE (glucuronide elimination clearance) ([3]; control, median (range)): 8.4 (5.3 to 12.4) L/h | Fraction eliminated (percent of morphine dose eliminated as the glucuronide metabolite) ([3]; control, median (range)): approximately 40% | Fraction eliminated (percent of morphine dose eliminated as the glucuronide metabolite) ([3]; control, median (range), […]): 40.5 (27 to 52) % | Delay time (appearance of the metabolite in plasma) ([3]; control, median (range)): 0.010 (0.003 to 0.09) h | CLEM-3-G (elimination clearance represented by metabolism to morphine-glucuronide) ([3]; control, CLE × percent eliminated as glucuronide, mean ± SD): 39.0 ± 14.8 L/h | VSS of morphine glucuronide ([3]; control, mean ± SD): 15.0 ± 2.5 L | Decrease in median glucuronide elimination clearance by cyclosporine ([3]; cyclosporine vs control): more than 10% | ClE (glucuronide elimination clearance) [3, 13]: 7.5 (3.7 to 14.0) ^@ L/h | Fraction eliminated (percent of morphine dose eliminated as the glucuronide metabolite) [3, 13]: approximately 40% | Fraction eliminated (percent of morphine dose eliminated as the glucuronide metabolite) ([3]; with cyclosporine, median (range), […]): 43.4 (21 to 73) % | Delay time (appearance of the metabolite in plasma) [3, 13]: 0.022 (0.003 to 0.13) ^& h | CLEM-3-G (elimination clearance represented by metabolism to morphine-glucuronide) ([3]; with cyclosporine, CLE × percent eliminated as glucuronide, mean ± SD): 35.3 ± 13.4 L/h | VSS of morphine glucuronide ([3]; with cyclosporine, mean ± SD): 15.0 ± 2.5 L | Time of peak plasma concentration after the end of the morphine infusion (control): 0.2 h | Plasma AUC ratio (morphine glucuronide/morphine) (control, mean ± SD): 5.0 ± 1.2 | Plasma Tmax (control, relative to start of morphine infusion, mean ± SD): 1.2 ± 0.2 h | Delay of time to peak plasma concentration by cyclosporine (cyclosporine vs control): 0.4 h | Plasma AUC ratio (morphine glucuronide/morphine) (with cyclosporine, mean ± SD): 5.3 ± 1.1 | Clinical effect [4]: no clinical effect

CN1CC[C@]23c4c5ccc(O)c4O[C@H]2[C@@H](O[C@@H]2O[C@H](C(=O)O)[C@@H](O)[C@H](O)[C@H]2O)C=C[C@H]3[C@H]1C5 [Morphine-6-glucuronide, morphine-6-glucuronide]
Vd [3]: 15 ± 2.5 L | Vd ([3]; 0.1 mg/kg): 15 ± 2.5 L | clearance ([3]; 0.1 mg/kg, CLEM-6-G (elimination clearance represented by metabolism to morphine-glucuronide), control, CLE × percent eliminated as glucuronide, mean ± SD): 138 mL/min | clearance ([3]; 0.1 mg/kg, ClE (glucuronide elimination clearance), control, median (range)): 160 mL/min | clearance ([3]; CLEM-6-G (elimination clearance represented by metabolism to morphine-glucuronide), with cyclosporine, CLE × percent eliminated as glucuronide, mean ± SD): 103 mL/min | Fraction eliminated (percent of morphine dose eliminated as the glucuronide metabolite) ([3]; control, median (range), listed as Morphine-6- glucuronide): 8.1 (4.9 to 12.5) % | Fraction eliminated (percent of morphine dose eliminated as the glucuronide metabolite) ([3]; control, median (range), listed as morphine-6-glucuronide): 8.1% | Delay time (appearance of the metabolite in plasma) ([3]; control, median (range)): 0.11 (0.04 to 0.34) h | Decrease in median glucuronide elimination clearance by cyclosporine ([3]; cyclosporine vs control): ~25% | Fraction eliminated (percent of morphine dose eliminated as the glucuronide metabolite) ([3]; with cyclosporine, median (range), listed as Morphine-6- glucuronide): 7.4 (3.3 to 16.6) ^& % | Fraction eliminated (percent of morphine dose eliminated as the glucuronide metabolite) ([3]; with cyclosporine, median (range), listed as morphine-6-glucuronide): 7.4% | Delay time (appearance of the metabolite in plasma) [3, 13]: 0.18 (0.06 to 0.37) h | Plasma AUC ratio (morphine glucuronide/morphine) (control, mean ± SD): 0.88 ± 0.20 | Plasma AUC ratio (morphine glucuronide/morphine) (with cyclosporine, mean ± SD): 0.85 ± 0.20 | AUC(0-inf) (clinical): 0.117 ± 0.032 µg·h/mL | Cmax (clinical): 0.0249 ± 0.0052 µg/mL | half-life (clinical): 2.8 ± 1.2 h

CN1CC[C@]23c4c5ccc(O)c4O[C@H]2[C@@H](O)C=C[C@H]3[C@H]1C5 [Morphine]
Predicted maximum biophase concentration (healthy volunteers [5]; after cyclosporine): 41 ± 13 ng/mL | Maximum calculated effect site morphine concentration (healthy volunteers [5]; control (abstract)): 7.6 ± 2.9 ng/mL | Predicted maximum biophase concentration (healthy volunteers [5]; control): 27 ± 11 ng/mL | Maximum calculated effect site morphine concentration (healthy volunteers [5]; with cyclosporine (abstract)): 11.5 ± 3.7 ng/mL | VC (central volume) ([3]; control, mean ± SD): 21.5 ± 4.7 L | Average peripheral volume (VP) during cyclosporine treatment less than control ([3]; cyclosporine vs control, not statistically significant): approximately 11% | VC (central volume) ([3]; with cyclosporine, mean ± SD): 21.5 ± 4.7 L | Analgesic effect (thermal stimulus) (healthy volunteers [6]): negligible analgesic effects | Time of maximum miosis after the end of the morphine infusion (healthy volunteers [7]): 1.6 h

C/C=C/C[C@@H](C)C(=O)[C@H]1C(=O)N[C@@H](C(C)C)C(=O)N(C)CC(=O)N(C)[C@@H](CC(C)C)C(=O)N[C@@H](C(C)C)C(=O)N(C)[C@@H](CC(C)C)C(=O)N[C@@H](C)C(=O)N[C@H](C)C(=O)N(C)[C@@H](CC(C)C)C(=O)N(C)[C@@H](CC(C)C)C(=O)N(C)[C@@H](C(C)C)C(=O)N1C [PSC833]
Effect on morphine-related respiratory depression (and drowsiness) (P-gp [8]): did not significantly change; also recorded: no effect

C=C[C@H]1C[N@@]2CC[C@H]1C[C@@H]2[C@@H](O)c1ccnc2ccc(OC)cc12 [Quinidine]
IC50 (human P-gp): 34 µM | IC50 (P-gp [9]): 36 µM | IC50 (P-gp [10]): 3 µM

CN(C)C(=O)C(CCN1CCC(O)(c2ccc(Cl)cc2)CC1)(c1ccccc1)c1ccccc1 [loperamide]
Transport ratio in mdr1-knockout mice vs control [11]: 10.4 | Efflux ratio (P-gp [12]): > 20%
